BindingDB's records for doi:10.1016/0014-2999(84)90478-3 (Mayo Clinic, 1984)
Structures can show the parent of a compound that is named as a salt.

Legend:
[1] = target: T1, Alpha-1A adrenergic receptor (Homo sapiens, UniProt P35348)
T1 sequence (P35348 whole entry): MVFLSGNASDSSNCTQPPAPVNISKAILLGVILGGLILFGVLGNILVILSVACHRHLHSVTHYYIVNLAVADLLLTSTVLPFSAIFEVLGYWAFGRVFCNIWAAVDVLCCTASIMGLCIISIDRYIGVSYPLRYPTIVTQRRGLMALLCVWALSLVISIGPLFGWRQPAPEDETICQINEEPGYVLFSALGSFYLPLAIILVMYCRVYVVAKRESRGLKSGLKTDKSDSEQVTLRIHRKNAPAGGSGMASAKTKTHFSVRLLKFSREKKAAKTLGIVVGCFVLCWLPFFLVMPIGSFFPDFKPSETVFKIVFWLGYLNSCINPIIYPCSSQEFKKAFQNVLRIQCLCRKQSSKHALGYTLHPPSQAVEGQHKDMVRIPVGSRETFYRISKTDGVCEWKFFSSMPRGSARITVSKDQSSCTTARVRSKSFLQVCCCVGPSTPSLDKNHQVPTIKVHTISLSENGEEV

[2] = target: T2, Alpha-2A adrenergic receptor (Homo sapiens, UniProt P08913)
T2 sequence (P08913 whole entry): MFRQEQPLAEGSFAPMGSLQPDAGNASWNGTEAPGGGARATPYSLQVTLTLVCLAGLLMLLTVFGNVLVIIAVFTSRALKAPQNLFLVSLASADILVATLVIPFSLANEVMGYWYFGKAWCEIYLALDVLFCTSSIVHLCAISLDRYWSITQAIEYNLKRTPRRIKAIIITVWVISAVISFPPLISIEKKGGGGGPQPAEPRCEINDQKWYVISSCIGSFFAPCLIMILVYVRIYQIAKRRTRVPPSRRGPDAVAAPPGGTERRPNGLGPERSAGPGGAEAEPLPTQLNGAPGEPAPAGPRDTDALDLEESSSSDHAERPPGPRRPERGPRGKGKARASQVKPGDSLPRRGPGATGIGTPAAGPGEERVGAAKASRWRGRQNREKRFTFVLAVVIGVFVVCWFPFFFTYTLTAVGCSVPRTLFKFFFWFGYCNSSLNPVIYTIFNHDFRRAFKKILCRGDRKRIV

D(2) dopamine receptor = D(2) dopamine receptor (Homo sapiens, UniProt P14416)
Chain of D(2) dopamine receptor (P14416 whole entry): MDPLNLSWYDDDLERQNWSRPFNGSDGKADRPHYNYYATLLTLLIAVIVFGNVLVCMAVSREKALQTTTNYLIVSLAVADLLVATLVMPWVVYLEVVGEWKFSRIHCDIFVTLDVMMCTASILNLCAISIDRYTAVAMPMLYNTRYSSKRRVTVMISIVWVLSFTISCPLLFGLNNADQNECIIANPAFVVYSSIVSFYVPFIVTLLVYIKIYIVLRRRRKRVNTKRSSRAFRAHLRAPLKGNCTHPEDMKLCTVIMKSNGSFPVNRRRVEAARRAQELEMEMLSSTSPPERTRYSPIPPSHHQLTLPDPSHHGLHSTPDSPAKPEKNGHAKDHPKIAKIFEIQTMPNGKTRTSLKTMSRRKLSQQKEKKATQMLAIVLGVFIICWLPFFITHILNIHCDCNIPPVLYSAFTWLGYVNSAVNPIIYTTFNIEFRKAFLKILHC

SMILES | Ki [1] | Ki [2] | Ki (D(2) dopamine receptor)
CC(C)(C)[C@]1(O)CCN2C[C@H]3c4ccccc4CCc4cccc(c43)[C@@H]2C1 | 56 nM | 310 nM | –
CN(C)CC/C=C1\c2ccccc2Sc2ccc(Cl)cc21 | – | – | 8 nM
CN1CCCCC1CCN1c2ccccc2Sc2ccc([S+](C)[O-])cc21 (stereo unspecified) | 2 nM | 1600 nM | 19 nM
CN(C)CCCN1c2ccccc2Sc2ccccc21 | 6 nM | 900 nM | 160 nM
CN1CCN(CCCN2c3ccccc3Sc3ccc(C(F)(F)F)cc32)CC1 | – | – | 2.6 nM
OCCN1CCN(CCCN2c3ccccc3Sc3ccc(Cl)cc32)CC1 [4-[3-(2-chlorophenothiazin-10-yl)propyl]-1-piperazineethanol] | – | – | 1.4 nM
O=C(CCCN1CCC2(CC1)C(=O)NCN2c1ccccc1)c1ccc(F)cc1 [8-[4-(4-fluorophenyl)-4-oxidanylidene-butyl]-1-phenyl-1,3,8-triazaspiro[4.5]decan-4-one] | 1.2 nM | 660 nM | –
CN1CCN(C2=Nc3ccccc3Oc3ccc(Cl)cc32)CC1 [13-chloro-10-(4-methylpiperazin-1-yl)-2-oxa-9-azatricyclo[9.4.0.0^{3,8}]pentadeca-1(11),3,5,7,9,12,14-heptaene] | 28 nM | – | –
CN1CCN(CC/C=C2/c3ccccc3Sc3ccc(S(=O)(=O)N(C)C)cc32)CC1 [MLS000028463] | 11 nM | 200 nM | 0.45 nM
CCc1c(C)[nH]c2c1C(=O)C(CN1CCOCC1)CC2 (stereo unspecified) [Moban] | – | – | 120 nM
CN(C)CCCN1c2ccccc2Sc2ccc(C(F)(F)F)cc21 [TRIFLUPROMAZINE] | – | – | 2.8 nM
